From patent US12083115B2, “Methods for treating neurological symptoms associated with lysosomal storage diseases” (Genzyme Corporation, priority 2020, dated 2024)
Where two headings read alike, the source gives them in different places.

Experiments:
[1] = Study 1 Part 1: ascending single-dose PK in healthy men; format: in vivo, human
From the text: Study 1 was a 2-part single-center trial in healthy adult male volunteers.
Part 1 of the study enrolled and randomized 55 healthy men (placebo, n=14; 2-, 5-, 15, 25-, 50, and 100-mg doses, n=6 each; 150-mg dose, n=5). Eight healthy men participated in Part 2. […]

[2] = system: adult patients with Gaucher disease Type 3; assay: Clinical study in GD-3 patients: ataxia, SARA scale; format: in vivo, human; parameters: key to SARA Cumulative Score, Average Score excluding Patient 4 / SARA Cumulative Score / SARA Cumulative Score, Average Score: SARA, eight ataxia attributes summed, 0-40 scale; settings: for SARA Cumulative Score: 15 mg/day + imiglucerase; for SARA Cumulative Score, Average Score: screening 2.83

Compound: CC(C)(NC(=O)O[C@@H]1CN2CCC1CC2)c1csc(-c2ccc(F)cc2)n1 [Compound 2, (S)-quinuclidin-3-yl 2-(2-(4-fluorophenyl)thiazol-4-yl)propan-2-ylcarbamate]
- AUC(0-inf) ([1]; male, human, plasma, oral, 50 mg, 50 mg single dose, N = 6, read-out: AUCinf, Geometric mean (CV)): 6.8 µg·h/mL
- AUC(0-inf) ([1]; male, human, plasma, oral, 50 mg, 50 mg single dose, N = 6, read-out: AUCinf, Mean (SD)): 7.13 µg·h/mL
- AUC(0-t) ([1]; male, human, plasma, oral, 50 mg, 50 mg single dose, N = 6, read-out: AUClast, Geometric mean (CV)): 6.07 µg·h/mL
- AUC(0-t) ([1]; male, human, plasma, oral, 50 mg, 50 mg single dose, N = 6, read-out: AUClast, Mean (SD)): 6.31 µg·h/mL
- Cmax ([1]; male, human, plasma, oral, 50 mg, 50 mg single dose, N = 6, read-out: Cmax, Geometric mean (CV)): 0.173 µg/mL
- Cmax ([1]; male, human, plasma, oral, 50 mg, 50 mg single dose, N = 6, read-out: Cmax, Mean (SD)): 0.181 µg/mL
- Vd/F ([1]; male, human, plasma, oral, 50 mg, 50 mg single dose, N = 6, read-out: Vss/F, Geometric mean (CV)): 232 L
- Vd/F ([1]; male, human, plasma, oral, 50 mg, 50 mg single dose, N = 6, read-out: Vss/F, Mean (SD)): 239 L
- half-life ([1]; male, human, plasma, oral, 50 mg, 50 mg single dose, N = 6, read-out: t1/2, Geometric mean (CV) (converted)): 28.5 h
- half-life ([1]; male, human, plasma, oral, 50 mg, 50 mg single dose, N = 6, read-out: t1/2, Mean (SD) (converted)): 28.9 h
- AUC(0-inf) ([1]; male, human, plasma, oral, 100 mg, 100 mg single dose, N = 6, read-out: AUCinf, Geometric mean (CV)): 14.1 µg·h/mL
- AUC(0-inf) ([1]; male, human, plasma, oral, 100 mg, 100 mg single dose, N = 6, read-out: AUCinf, Mean (SD)): 14.4 µg·h/mL
- AUC(0-t) ([1]; male, human, plasma, oral, 100 mg, 100 mg single dose, N = 6, read-out: AUClast, Geometric mean (CV)): 12.8 µg·h/mL
- AUC(0-t) ([1]; male, human, plasma, oral, 100 mg, 100 mg single dose, N = 6, read-out: AUClast, Mean (SD)): 13 µg·h/mL
- Cmax ([1]; male, human, plasma, oral, 100 mg, 100 mg single dose, N = 6, read-out: Cmax, Geometric mean (CV)): 0.372 µg/mL
- Cmax ([1]; male, human, plasma, oral, 100 mg, 100 mg single dose, N = 6, read-out: Cmax, Mean (SD)): 0.374 µg/mL
- Vd/F ([1]; male, human, plasma, oral, 100 mg, 100 mg single dose, N = 6, read-out: Vss/F, Geometric mean (CV)): 212 L
- Vd/F ([1]; male, human, plasma, oral, 100 mg, 100 mg single dose, N = 6, read-out: Vss/F, Mean (SD)): 213 L
- half-life ([1]; male, human, plasma, oral, 100 mg, 100 mg single dose, N = 6, read-out: t1/2, Geometric mean (CV) (converted)): 27.6 h
- half-life ([1]; male, human, plasma, oral, 100 mg, 100 mg single dose, N = 6, read-out: t1/2, Mean (SD) (converted)): 27.8 h
- Tmax ([1]; male, human, plasma, oral, 150 mg single dose, N = 5, read-out: tmax, median): 4 h
- AUC(0-inf) ([1]; male, human, plasma, oral, 150 mg, 150 mg single dose, N = 5, read-out: AUCinf, Geometric mean (CV)): 19.9 µg·h/mL
- AUC(0-inf) ([1]; male, human, plasma, oral, 150 mg, 150 mg single dose, N = 5, read-out: AUCinf, Mean (SD)): 20.6 µg·h/mL
- AUC(0-t) ([1]; male, human, plasma, oral, 150 mg, 150 mg single dose, N = 5, read-out: AUClast, Geometric mean (CV)): 18 µg·h/mL
- AUC(0-t) ([1]; male, human, plasma, oral, 150 mg, 150 mg single dose, N = 5, read-out: AUClast, Mean (SD)): 18.6 µg·h/mL
- Cmax ([1]; male, human, plasma, oral, 150 mg, 150 mg single dose, N = 5, read-out: Cmax, Geometric mean (CV)): 0.52 µg/mL
- Cmax ([1]; male, human, plasma, oral, 150 mg, 150 mg single dose, N = 5, read-out: Cmax, Mean (SD)): 0.529 µg/mL
- Vd/F ([1]; male, human, plasma, oral, 150 mg, 150 mg single dose, N = 5, read-out: Vss/F, Geometric mean (CV)): 223 L
- Vd/F ([1]; male, human, plasma, oral, 150 mg, 150 mg single dose, N = 5, read-out: Vss/F, Mean (SD)): 228 L
- half-life ([1]; male, human, plasma, oral, 150 mg, 150 mg single dose, N = 5, read-out: t1/2, Geometric mean (CV) (converted)): 26.4 h
- half-life ([1]; male, human, plasma, oral, 150 mg, 150 mg single dose, N = 5, read-out: t1/2, Mean (SD) (converted)): 26.9 h
- half-life ([1]; male, human, plasma, po, single oral doses of 2 to 150 mg, read-out: geometric mean t1/2 (converted)): 28.9 h
- median time of Cmax ([1]; single oral doses of 2 to 150 mg): 3 to 5.5 h
- patients with positive correlation between reduction in CSF GL-1 and SARA score ([2]; 52 weeks, 11 patients): 8 of 11
- patients showing improvements in ataxia ([2]; 52 weeks, N = 6, 15 mg/day + imiglucerase): 5 of 6
- SARA Cumulative Score ([2]; Patient 1, Week 26, screening 3.0): 1.0
- SARA Cumulative Score ([2]; Patient 2, Week 26, screening 3.0): 2.0
- SARA Cumulative Score ([2]; Patient 2, Week 52, screening 3.0): 1.5
- SARA Cumulative Score ([2]; Patient 3, Week 26, screening 3.5): 0.0
- SARA Cumulative Score ([2]; Patient 3, Week 52, screening 3.5): 0.0
- SARA stance score ([2]; Patient 4, Week 26 (baseline 1)): 1
- SARA Cumulative Score ([2]; Patient 4, Week 26, screening 3.0): 5.0
- SARA stance score ([2]; Patient 4, Week 52 (baseline 1; left knee pain, injured toe)): 5
- SARA Cumulative Score ([2]; Patient 6, Week 26, screening 4.0): 2.0
- SARA Cumulative Score ([2]; Patient 6, Week 52, screening 4.0): 3.0
- SARA Cumulative Score ([2]; Patient 7, Week 26, screening 5.5): 7.5
- SARA Cumulative Score ([2]; Patient 7, Week 52, screening 5.5): 5.0
- SARA Cumulative Score ([2]; Patient 8, Week 26, screening 2.0): 0.5
- SARA Cumulative Score ([2]; Patient 8, Week 52, screening 2.0): 0
- SARA Cumulative Score ([2]; Patient 9, Week 26, screening 0.0): 0.0
- SARA Cumulative Score ([2]; Patient 9, Week 52, screening 0.0): 0.0
- SARA Cumulative Score ([2]; Patient 10, Week 26, screening 2.0): 2.0
- SARA Cumulative Score ([2]; Patient 10, Week 52, screening 2.0): 1.0
- SARA Cumulative Score ([2]; Patient 11, Week 26, screening 3.0): 3.0
- SARA Cumulative Score ([2]; Patient 11, Week 52, screening 3.0): 2.0
- SARA Cumulative Score, Average Score ([2]; Patients 1-6, Week 26): 1.67
- SARA Cumulative Score, Average Score ([2]; Patients 1-6, Week 52): 2.00
- SARA Cumulative Score, Average Score excluding Patient 4 ([2]; Week 26, screening 2.80): 1.00
- patients exhibiting an improvement in ataxia ([2]; Week 52, Excluding Patient 5): 4 out of 5
- patients exhibiting an improvement in ataxia ([2]; Week 52, five new patients excluding Patient 9): 4 out of 4
- gait on videotaped straight-line walk ([2]; two patients, week 26 and week 52 compared to baseline): steadier, better coordinated, and faster gait
